{"source": "patent US20150293109A1", "about": "“Fluorescent Chemical Dye for Visualization of Neural Stem Cell Symmetric and Asymmetric Division” (NATIONAL UNIVERSITY OF SINGAPORE, priority 2012, published 2015)", "format_in_all_cases": "cell-based, mouse", "key": {"[1]": {"test_system": "dissociated neurosphere cells", "test": "Neurosphere formation in the presence of AC inhibitors", "settings": "1,000 cells per well, 0.01 to 10 μM AC inhibitor, neurospheres counted, read-out: IC50 of inhibition of neurosphere formation", "description": "Mouse brains harvested from E14.5 fetuses were digested with 0.25% trypsin/1mM EDTA solution for 30 minutes at 37° C. The tissues were triturated sequentially with a 10-mL pipette, a 1-mL pipette and a 0.2-mL pipette in medium containing 10% fetal bovine serum (FBS). The dissociated cells were washed 3 times with PBS by repeated resuspension and centrifugation, and filtered through a 40-μm strainer. The obtained single cells were plated in DMEM/F12 medium containing 10 ng/mL bFGF, 20 ng/mL EGF and B27 without vitamin A, and cultured for 7-10 days without changing the medium.\n(§1) To assess the effects of CDy5 and AC inhibitors on neurosphere formation, dissociated neurosphere cells were plated in 12-well culture plates at a density of 1,000 cells per well and cultures in the presence of 2 μM or 4 μM CDy5 or 0.01 to 10 μM AC inhibitor. For vehicle control, DMSO was added to a volume of 0.1%. The IC50 values were calculated using GraphPad Prism software.\nCeranib-2 was developed as a ceramidase inhibitor by screening ˜50,000 small molecules and chemical optimization of a lead compound. It inhibits cancer cell growth in vivo as well as in vitro (21)."}, "neurospheres [2]": {"test_system": "neurospheres", "test": "Differentiation potential of neurospheres generated from CDy5bright and CDy5dim cells", "settings": "mean±SD of duplicates", "description": "Single neurospheres were plated onto glass coverslips coated with laminin and poly-L-lysine and cultured in bFGF/EGF-depleted neurosphere culture medium containing 5% fetal bovine serum. The differentiated cells were fixed with 4% paraformaldehyde and stained using primary antibodies: Tuj1 (Covance), glial fibrillary acidic protein (GFAP) (Dako), and O4 (Millipore), and appropriate secondary antibodies: Alexa Fluor 488 goat anti-mouse, Alexa Fluor 594 goat anti-mouse and Alexa Fluor 647 donkey anti-rabbit (Life Technologies), respectively. Tuj1 was used as a marker for neurons, GFAP was used as a marker for astrocytes and 04 was used as a marker for oligodendrocytes.\nWhen the neurospheres were randomly differentiated in a medium containing only FBS, and immunostained against astrocyte, neuron and oligodendrocyte markers as described above, more numbers of neurospheres generated from CDy5^bright cells differentiated into all three types of cells than those from CDy5^dim cells. The CDy5^bright cells differentiated into 30±4% uni-potent cells, 26±1 bi-potent cells and 44±3 tri-potent cells. The CDy5^dim cells differentiated into 47±6 uni-potent cells, 22±1 bi-potent cells and 31±7 tri-potent cells. Data represent mean±standard deviation (SD) of duplicates."}, "neurospheres [3]": {"test_system": "neurospheres", "test": "Multipotency test of neurospheres generated in the presence of CDy5", "settings": "neurospheres generated in the presence of CDy5, differentiated in 5% FBS", "description": "(§2) Whether CDy5 exerts adverse effects on proliferation and differentiation of neural stem cells was also assessed using a neurosphere assay and multipotency test. For cytotoxicity assay, dissociated neurosphere cells were plated in triplicate in 6-well culture plates at a density of 1,000 cells per well and cultured in the presence of 2 μM or 4 μM CDy5. For vehicle control, 0.1% DMSO was added. After six days, the number of neurospheres was determined.\nThe single neurospheres generated in the presence of CDy5 and normal medium were then plated onto glass coverslips coated with laminin and poly-L-lysine, cultured in medium containing 5% fetal bovine serum and allowed to undergo differentiation. The differentiated cells were immunostained using antibodies raised against markers of astrocyte, neuron and oligodendrocyte to classify the neurospheres into uni-, bi- and tri-potent depending on the number of positively stained cell types. The control group contained 55±6% unipotent neurospheres, 29±3% bipotent neurospheres and 16±3% tripotent neurospheres. The CDy5 group contained 49±1% unipotent neurospheres, 31±4% bipotent neurospheres and 20±3% tripotent neurospheres. These are very similar ratios of differentiation potential of neurospheres between control and CDy5 groups."}, "neurosphere cells": {"test_system": "neurosphere cells", "test": "Neurosphere assay of FACS-sorted CDy5bright and CDy5dim cells", "settings": "FACS-sorted cells, 3,000 cells per well, six days of culture", "description": "The method of detecting a stem cell in a sample can further comprise distinguishing between a neural stem cell and a differentiated neural cell in the sample. For example, when a mouse neurosphere was treated with CDy5, cytoplasmic staining of a distinct cell population within the neurosphere was observed (FIG. 1). The so-called CDy5^bright cells, those visible in the right panel of FIG. 1, emitted a signal that was substantially greater than the signal emitted by the so-called CDy5^dim cells. […] In the experiment described above, a cell was considered to be a CDy5^dim cell if no signal could be detected by fluorescence microscopy, or the signal detected was not substantially greater than background signal.\nDissociated neurosphere cells were cultured in a complete neurosphere culture medium containing 2 μM CDy5 for six days. They were dissociated for single cell imaging, live cell time-lapse imaging and clonal neurosphere imaging. […]\nTo examine the relationship between stemness and CDy5 staining, CDy5^bright and CDy5^dim neurosphere cells were sorted and collected by FACS and separately resuspended in neurosphere culture medium and plated in triplicate in […] culture plates at a density of 3,000 cells per well. […] After six days of culture, the number of neurospheres was counted manually under a microscope."}, "[4]": {"test_system": "dissociated neurosphere cells", "test": "Cytotoxicity assay: number of neurospheres grown in the presence of CDy5", "settings": "for number of neurospheres: vehicle control 189±40", "description": "as §1, §2"}, "neurospheres [5]": {"test_system": "neurospheres", "test": "Dye retention in stained neurospheres after paraformaldehyde fixation and methanol extraction", "settings": "4% paraformaldehyde fixation followed by absolute methanol", "excerpt": "To determine if CDy5 forms a covalent bond with a protein, neurospheres stained with CDy5 and Hoechst 33342 were fixed using 4% paraformaldehyde followed by absolute methanol, which extracts organic dyes bound to their targets by noncovalent bonding. Both CDy5 and Hoechst signals were detected when observed after fixation with paraformaldehyde."}, "[6]": {"settings": "neurospheres from CDy5bright cells"}, "[7]": {"settings": "neurospheres from CDy5dim cells"}}, "note": "Where two headings read alike, the source gives them in different places."}
{"smiles": "COc1ccc(/C=C/C(=O)c2c(-c3ccccc3)c3ccccc3[nH]c2=O)cc1", "note": "[Ceranib-2]", "values": [{"measurement": "IC50", "setting": "[1]", "value": 0.78, "unit": "µM"}]}
{"smiles": "CN(CCNC(=O)CCl)c1ccc2c(-c3cccc(CN4CCOCC4)c3)c3ccc(=N)cc-3oc2c1", "note": "[CDy5]", "values": [{"measurement": "bi-potent", "setting": "neurospheres [2]; [6]", "value": "26±1", "unit": "%"}, {"measurement": "tri-potent", "setting": "neurospheres [2]; [6]", "value": "44±3", "unit": "%"}, {"measurement": "uni-potent", "setting": "neurospheres [2]; [6]", "value": "30±4", "unit": "%"}, {"measurement": "bi-potent", "setting": "neurospheres [2]; [7]", "value": "22±1", "unit": "%"}, {"measurement": "tri-potent", "setting": "neurospheres [2]; [7]", "value": "31±7", "unit": "%"}, {"measurement": "uni-potent", "setting": "neurospheres [2]; [7]", "value": "47±6", "unit": "%"}, {"measurement": "tripotent neurospheres", "setting": "neurospheres [3]; control 16±3%", "value": "20±3", "unit": "%"}, {"measurement": "bipotent neurospheres", "setting": "neurospheres [3]; control 29±3%", "value": "31±4", "unit": "%"}, {"measurement": "unipotent neurospheres", "setting": "neurospheres [3]; control 55±6%", "value": "49±1", "unit": "%"}, {"measurement": "times more neurospheres from CDy5bright cells than from CDy5dim cells", "setting": "neurosphere cells", "value": "more than 10 times"}, {"measurement": "number of neurospheres compared to vehicle-added control group", "setting": "[4]; 2 μM and 4 μM CDy5, six days of culture", "value": "not significantly different"}, {"measurement": "number of neurospheres", "setting": "[4]; medium containing 2 μM CDy5", "value": "229±72"}, {"measurement": "number of neurospheres", "setting": "[4]; medium containing 4 μM CDy5", "value": "228±83"}]}
{"smiles": "CCOc1ccc(-c2nc3ccc(-c4nc5ccc(N6CCN(C)CC6)cc5[nH]4)cc3[nH]2)cc1", "note": "[Hoechst 33342]", "values": [{"measurement": "dye signal following methanol treatment", "setting": "neurospheres [5]", "value": "almost completely washed out"}]}
{"smiles": "CCCCCCNC(=O)n1cc(F)c(=O)[nH]c1=O", "note": "[Carmofur]", "values": [{"measurement": "IC50", "setting": "[1]; Mus musculus", "value": 0.92, "unit": "µM"}]}
